Source: patent US20090325948A1, “INHIBITORS OF UNDECAPRENYL PYROPHOSPHATE SYNTHASE” (priority 2006, published 2009)

molecular target: T1, Streptococcus pneumonia UPPS (Streptococcus pneumoniae serotype 4, UniProt Q97SR4); assay: UPPS binding/inhibition assay (inorganic phosphate quantified with Biomol Green); format: biochemical; conditions: 20 min preincubation; FPP 3 μM, IPP 16 μM
T1 construct: His-tag (N); made in house; this is inferred
T1 sequence (Q97SR4 1-252): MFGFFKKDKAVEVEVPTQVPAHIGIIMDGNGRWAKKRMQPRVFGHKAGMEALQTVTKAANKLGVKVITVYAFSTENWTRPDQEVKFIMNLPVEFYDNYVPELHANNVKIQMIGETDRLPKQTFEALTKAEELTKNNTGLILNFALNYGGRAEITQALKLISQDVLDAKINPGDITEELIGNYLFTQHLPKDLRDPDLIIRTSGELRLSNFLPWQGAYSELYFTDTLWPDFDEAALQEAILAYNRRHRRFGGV
Protocol: The ability of several of the compounds described herein to bind to UPPS was also tested as follows.
Streptococcus pneumonia UPPS was cloned into pET-15b, expressed and purified as an N-terminal His-tag fusion using affinity chromatography. The working stock of UPPS was prepared by mixing the purified enzyme with liposome made from E. coli total lipids extract (Avanti Polar Lipis, Inc., Alabaster, Ala.). The substrates FPP and IPP and inorganic pyrophosphatase were purchased from Sigma. Biomol Green reagent was from Biomol International (Plymouth Meeting, Pa.). All other chemicals were from Sigma at the highest grade.
For testing a compound, UPPS was first incubated with the compound at desired concentrations for 20 minutes in the UPPS reaction buffer that contained 100 mM Tris-HCl, pH 7.3, 50 mM KCl, 1 mM MgCl2, 0.01% Triton X-100, and 20 μg/mL BSA. The reaction was then initiated by the addition of a mixture of FPP, IPP, and E. Coli inorganic phosphatase made in the same UPPS reaction buffer. The final concentrations for FPP and IPP were 3 μM and 16 μM, respectively. The inorganic phosphate generated in the reactions was then quantified with Biomol Green reagent, which was then used to determine the rate of the reaction and the inhibitory activity of the compound.
For example, the results of the binding assay for several compounds are shown the table below: […]

| Structure (SMILES) | IC50 [µM] |
| --- | --- |
| O=C(Nc1ccc(Oc2ccccc2)cc1)c1c(O)c2cscc2[nH]c1=O [compound 2] | 0.01 to 10 |
| O=C(Nc1ccc(C2CCCCC2)cc1)c1c(O)c2cscc2[nH]c1=O [compound 4] | 0.01 to 10 |
| COc1ccc(-c2nc(NC(=O)c3c(O)c4cscc4[nH]c3=O)nn2-c2ccc(OC)cc2)cc1 [compound 10] | 0.01 to 10 |
| CC(C)(C)C1CCC(NC(=O)c2c(O)c3cscc3[nH]c2=O)CC1 (stereo not shown) [compound 11] | 0.01 to 10 |
| O=C(Nc1ccc(-c2ccccc2)cc1)C1=C(O)[C@H]2CNC[C@@H]2NC1=O [compound 17] | 0.01 to 10 |
| CCN1C[C@@H]2NC(=O)C(C(=O)Nc3ccc(C4CCCCC4)cc3)=C(O)[C@H]2C1 [compound 20] | 0.01 to 10 |
| O=C(Nc1ccc(-c2ccccc2)cc1)C1=C(O)C2CNCCC2NC1=O (stereo not shown) [compound 26] | 0.01 to 10 |
| O=C(Nc1ccc(Oc2ccccc2)cc1)C1=C(O)C2CNCCC2NC1=O (stereo not shown) [compound 28] | 0.01 to 10 |
| CC(C)(C)OC(=O)N1CCC2NC(=O)C(C(=O)Nc3ccc(C4CCCCC4)cc3)=C(O)C2C1 (stereo not shown) [compound 29] | 0.01 to 10 |
| O=C(Nc1ccc(N2CCCCC2)cc1)C1=C(O)C2CCNCC2NC1=O (stereo not shown) [compound 32] | 0.01 to 10 |
| CC(C)(C)OC(=O)N1CCC2NC(=O)C(C(=O)Nc3ccc(Oc4ccccc4)cc3)=C(O)C2C1 (stereo not shown) [compound 34] | 0.01 to 10 |
| O=C(Nc1ccc(N2CCCCC2)cc1)C1=C(O)C2CNCCC2NC1=O (stereo not shown) [compound 37] | 0.01 to 10 |
| O=C(Nc1ccc(C(F)(F)F)cc1)C1=C(O)[C@H]2CCC[C@H]2NC1=O [compound 40] | 0.01 to 10 |
| O=C(Nc1ccc(C2CCCCC2)cc1)C1=C(O)[C@H]2CCC[C@H]2NC1=O [compound 45] | 0.01 to 10 |
| O=C(Nc1ccc(N2CCCCC2)cc1)C1=C(O)[C@H]2CNCC[C@@H]2NC1=O [compound 46] | 0.01 to 10 |
| O=C(Nc1ccc(N2CCCCC2)cc1)C1=C(O)[C@H]2CNCC[C@H]2NC1=O [compound 47] | 0.01 to 10 |
| O=C(Nc1ccc(N2CCCCC2)cc1)C1=C(O)C2CCNCC2NC1=O (stereo not shown) [compound 49] | 0.01 to 10 |
| O=C(Nc1ccc(C2CCCCC2)cc1)C1=C(O)[C@H]2CNCC[C@@H]2NC1=O [compound 51] | 0.01 to 10 |
| CC(C)(C)OC(=O)N1CCC2C(O)=C(C(=O)Nc3ccc(N4CCCC4)cc3)C(=O)NC2C1 (stereo not shown) [compound 54] | 0.01 to 10 |
| CC(C)(C)OC(=O)N1CCC2NC(=O)C(C(=O)Nc3ccc(N4CCN(CCO)CC4)cc3)=C(O)C2C1 (stereo not shown) [compound 59] | 0.01 to 10 |
| O=C(Nc1ccc(N2CCCC2)cc1)C1=C(O)C2CCNCC2NC1=O (stereo not shown) [compound 61] | 0.01 to 10 |
| O=C(Nc1ccc(N2CCN(CCO)CC2)cc1)C1=C(O)C2CNCCC2NC1=O (stereo not shown) [compound 64] | > 50 |
| CCN1CC[C@@H]2NC(=O)C(C(=O)Nc3ccc(N4CCCCC4)cc3)=C(O)[C@H]2C1 [compound 69] | 0.01 to 10 |
| COCCOC(=O)N1CC[C@@H]2NC(=O)C(C(=O)Nc3ccc(N4CCCCC4)cc3)=C(O)[C@H]2C1 [compound 72] | 0.01 to 10 |
| C#CCOC(=O)N1CC[C@@H]2NC(=O)C(C(=O)Nc3ccc(N4CCCCC4)cc3)=C(O)[C@H]2C1 [compound 73] | > 50 |
| O=C(NCc1ccccc1)c1c(O)c2c([nH]c1=O)CCCC2 [compound 84] | 0.01 to 10 |
| CC(C)CCNC(=O)c1c(O)c2c([nH]c1=O)CCCC2 [compound 87] | 0.01 to 10 |
| O=C(NC1CCCCCC1)c1c(O)c2c([nH]c1=O)CCCC2 [compound 92] | 0.01 to 10 |

| Structure (SMILES) | IC50 [µM] |
| --- | --- |
| O=C(Nc1cccc(Br)c1)c1c(O)c2c([nH]c1=O)CCCC2 [compound 93] | > 50 |
| CNC(=O)c1ccccc1NC(=O)c1c(O)c2c([nH]c1=O)CCCC2 [compound 98] | 0.01 to 10 |
| O=C(Nc1cccc(Cl)c1Cl)c1c(O)c2c([nH]c1=O)CCCC2 [compound 100] | > 50 |
| O=C(Nc1nc2ccc(Br)cc2s1)c1c(O)c2c([nH]c1=O)CCCC2 [compound 104] | 0.01 to 10 |
| O=C(Nc1ccc(C2CCCCC2)cc1)c1c(O)c2cc(-c3ccccc3)sc2[nH]c1=O [compound 107] | 0.01 to 10 |
| CCCCCCOc1ccc(NC(=O)c2c(O)c3cc(-c4ccccc4)sc3[nH]c2=O)cc1 [compound 110] | 0.01 to 10 |
| O=C(Nc1ccc(C(F)(F)F)cc1)c1c(O)c2cc(-c3ccccc3)sc2[nH]c1=O [compound 111] | 10 to 50 |
| O=C(Nc1ccc(N2CCCCC2)cc1)c1c(O)c2c([nH]c1=O)CNCC2 [compound 120] | 0.01 to 10 |
| O=C(Nc1ccc(N2CCCCC2)cc1)c1c(O)c2c([nH]c1=O)CCNC2 [compound 121] | 0.01 to 10 |
| CCCOC(=O)c1ccc(NC(=O)c2c(O)c3c([nH]c2=O)CCCC3)cc1 [compound 124] | 0.01 to 10 |
| CC(=O)N1CCc2[nH]c(=O)c(C(=O)Nc3ccc(N4CCCCC4)cc3)c(O)c2C1 [compound 126] | 0.01 to 10 |
| CC(C)(C)C(=O)N1CCc2[nH]c(=O)c(C(=O)Nc3ccc(N4CCCCC4)cc3)c(O)c2C1 [compound 128] | 0.01 to 10 |
| COC(=O)N1CCc2[nH]c(=O)c(C(=O)Nc3ccc(N4CCCCC4)cc3)c(O)c2C1 [compound 129] | 0.01 to 10 |
| O=C(NNC(=O)c1c(O)c2ccccc2[nH]c1=O)c1ccccc1Cl [compound 131] | 0.01 to 10 |
| O=C(NC1CCCCC1)c1c(O)c2ccccc2[nH]c1=O [compound 137] | 0.01 to 10 |
| O=C(Nc1ccc(Oc2ccccc2)cc1)c1c(O)c2ccccc2[nH]c1=O [compound 142] | 0.01 to 10 |
| COc1cccc2[nH]c(=O)c(C(=O)Nc3ccc(Oc4ccccc4)cc3)c(O)c12 [compound 144] | > 50 |
| O=C(NCCN1CCOCC1)c1c(O)c2ccccc2[nH]c1=O [compound 154] | 0.01 to 10 |
| O=C(Nc1ccc(C(F)(F)F)nc1)c1c(O)c2ccccc2[nH]c1=O [compound 157] | 0.01 to 10 |
| O=C(Nc1ccc(-c2ccccc2)cc1)c1c(O)c2cc(Br)ccc2[nH]c1=O [compound 159] | 0.01 to 10 |
| O=C(Nc1ccccc1Oc1ccccc1)c1c(O)c2ccccc2[nH]c1=O [compound 162] | 0.01 to 10 |
| Cn1c(=O)c(C(=O)Nc2ccc(Oc3ccccc3)cc2)c(O)c2ccccc21 [compound 168] | 0.01 to 10 |
| COc1ccc(-c2nc(NC(=O)c3c(O)c4ccccc4n(C)c3=O)nn2-c2ccc(OC)cc2)cc1 [compound 173] | 0.01 to 10 |
| Cn1c(=O)c(C(=O)Nc2ccc(OC(F)(F)F)cc2)c(O)c2ccccc21 [compound 175] | 0.01 to 10 |
| CCCN(CC)c1ccc(NC(=O)c2c(O)c3ccc(N4CCNCC4)cc3[nH]c2=O)cc1 [compound 178] | 0.01 to 10 |
| O=C(Nc1ccc(N2CCCCC2)cc1)c1c(O)c2cc(N3CCNCC3)ccc2[nH]c1=O [compound 179] | 0.01 to 10 |
| CCCN(CC)c1ccc(NC(=O)c2c(O)c3ccc(N4CCN(C)CC4)cc3[nH]c2=O)cc1 [compound 180] | 0.01 to 10 |
